This passage reports IC50, Kd and Papp A→B results from ChEMBL document CHEMBL4376867 (J Med Chem, 2020).

The target of series [1] is T1, Inhibitor of nuclear factor kappa-B kinase subunit epsilon (Homo sapiens, UniProt Q14164).
T1 sequence (Q14164 whole entry): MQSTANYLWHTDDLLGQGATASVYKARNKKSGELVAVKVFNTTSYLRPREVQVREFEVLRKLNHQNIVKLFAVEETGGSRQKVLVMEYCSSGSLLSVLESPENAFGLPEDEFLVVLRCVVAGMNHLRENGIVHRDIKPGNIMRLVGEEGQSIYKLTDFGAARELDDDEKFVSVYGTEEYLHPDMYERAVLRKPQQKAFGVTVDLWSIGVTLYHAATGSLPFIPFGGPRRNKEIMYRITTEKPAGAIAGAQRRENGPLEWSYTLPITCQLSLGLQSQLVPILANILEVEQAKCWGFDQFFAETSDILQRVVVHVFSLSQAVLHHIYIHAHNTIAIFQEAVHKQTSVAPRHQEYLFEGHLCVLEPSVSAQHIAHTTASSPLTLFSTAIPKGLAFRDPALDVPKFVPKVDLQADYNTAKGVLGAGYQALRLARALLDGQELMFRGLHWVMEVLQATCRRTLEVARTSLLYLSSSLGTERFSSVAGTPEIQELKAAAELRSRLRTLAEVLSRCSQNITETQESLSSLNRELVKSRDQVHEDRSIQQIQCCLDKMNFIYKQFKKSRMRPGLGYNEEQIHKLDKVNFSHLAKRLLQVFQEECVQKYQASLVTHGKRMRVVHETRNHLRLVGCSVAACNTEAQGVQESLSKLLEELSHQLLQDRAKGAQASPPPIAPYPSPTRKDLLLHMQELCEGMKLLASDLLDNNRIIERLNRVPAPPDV
In words: Inhibition of recombinant full length human C-terminal GST-tagged IKKepsilon expressed in baculovirus expression system using biotin-labelled Ahx-GDEDFSSFAEPG peptide as substrate preincubated with enzyme for 15 mins followed by substrate addition and further incubated for 30 mins in presence of 10 uM of ATP by TR-FRET assay.

The target of series [2] is T2, Serine/threonine-protein kinase 17A (Homo sapiens, UniProt Q9UEE5).
T2 sequence (Q9UEE5 whole entry): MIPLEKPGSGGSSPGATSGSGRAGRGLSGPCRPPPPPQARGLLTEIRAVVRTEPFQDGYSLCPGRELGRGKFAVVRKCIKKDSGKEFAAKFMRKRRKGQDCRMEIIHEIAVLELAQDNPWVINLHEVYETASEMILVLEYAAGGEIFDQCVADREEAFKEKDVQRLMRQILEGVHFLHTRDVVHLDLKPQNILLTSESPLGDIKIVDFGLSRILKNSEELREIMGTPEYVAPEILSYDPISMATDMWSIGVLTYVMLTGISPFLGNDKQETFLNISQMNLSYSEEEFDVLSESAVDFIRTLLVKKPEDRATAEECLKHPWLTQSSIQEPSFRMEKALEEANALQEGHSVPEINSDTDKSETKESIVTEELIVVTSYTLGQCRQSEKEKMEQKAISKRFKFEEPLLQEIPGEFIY
In words: Inhibition of wild-type human partial length DRAK1 (R32 to E363 residues) expressed in bacterial expression system by Kinomescan method.

A short description of series [3]: Apparent permeability of compound across apical to basal membrane in human Caco2 cells at 2 uM in DMSO after 2 hrs by LC-MS/MS analysis. Type of series: ADME, cell-based. The note with it: Caco-2. For orientation: Caco-2 cells form a polarised layer with tight junctions and transporters.
In series [4] the target is T3, Serine/threonine-protein kinase TBK1 (Homo sapiens, UniProt Q9UHD2).
T3 sequence (Q9UHD2 whole entry): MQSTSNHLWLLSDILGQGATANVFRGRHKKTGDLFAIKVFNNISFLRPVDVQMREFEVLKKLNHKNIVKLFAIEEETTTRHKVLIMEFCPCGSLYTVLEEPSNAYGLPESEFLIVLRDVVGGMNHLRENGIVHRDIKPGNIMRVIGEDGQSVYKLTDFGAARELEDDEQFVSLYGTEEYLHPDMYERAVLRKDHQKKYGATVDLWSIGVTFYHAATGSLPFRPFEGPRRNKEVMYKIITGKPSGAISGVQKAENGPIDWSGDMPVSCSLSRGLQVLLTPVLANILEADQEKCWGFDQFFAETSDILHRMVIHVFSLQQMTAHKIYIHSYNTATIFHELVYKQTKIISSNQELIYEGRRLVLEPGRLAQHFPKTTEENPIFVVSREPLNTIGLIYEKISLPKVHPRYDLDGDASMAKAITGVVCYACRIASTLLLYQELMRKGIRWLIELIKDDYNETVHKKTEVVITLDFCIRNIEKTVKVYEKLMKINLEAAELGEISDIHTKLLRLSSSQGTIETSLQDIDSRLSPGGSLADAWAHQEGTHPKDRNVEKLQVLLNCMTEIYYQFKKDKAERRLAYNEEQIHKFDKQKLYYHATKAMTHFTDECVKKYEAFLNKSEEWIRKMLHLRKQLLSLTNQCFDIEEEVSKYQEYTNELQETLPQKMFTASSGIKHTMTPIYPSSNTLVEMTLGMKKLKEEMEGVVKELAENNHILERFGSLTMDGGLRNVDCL

As for `C[C@H](c1ccnc(Nc2nc3ccc(-c4cnn(CC5CC5)c4)cc3[nH]2)c1)N1CCN(C(=O)CC(F)(F)F)CC1`, the half-maximal inhibitory concentration (IC50) (in general, the concentration needed to halve the response being measured) in series [1] was determined as 6 nM; in series [4] it was 1 nM. Besides, the Kd – broadly, the equilibrium constant for the complex coming apart – in series [2] was found to be 5 nM. In addition, the apical-to-basolateral permeability (Papp A→B) (in general, the apparent permeability from the apical to the basolateral side of a cell layer) at 2 h, 2 µM in series [3] was determined as 1.6 ×10⁻⁶ cm/s.
Regarding `C[C@H](c1ccnc(Nc2nc3ccc(-c4cnn(CC5CCC5)c4)cc3[nH]2)c1)N1CCN(C(=O)CC(F)(F)F)CC1`, the concentration for half-maximal inhibition (IC50) in series [1] worked out at 4 nM; in series [2] it was 15 nM; in series [4], 2 nM.
Regarding `CN(C)c1cc(-c2ccc3nc(Nc4cc(CN5CCN(C(=O)CC(F)(F)F)CC5)ccn4)[nH]c3c2)ncn1`, the half-maximal inhibitory concentration (IC50) in series [1] turned out to be 10 nM; in series [2], 252 nM; in series [4], 9 nM.
Turning to `C[C@H](c1ccnc(Nc2nc3ccc(-c4cc(OCC5CC5)ncn4)cc3[nH]2)c1)N1CCN(C(=O)CC(F)(F)F)CC1`, the IC50 in series [1] is 4 nM; in series [4], 2 nM.
`O=C(CC(F)(F)F)N1CCN(Cc2ccnc(Nc3nc4ccc(-c5cnn(CC6CC6)c5)cc4[nH]3)c2)CC1`: the 50% inhibitory concentration (IC50) in series [1] is 7 nM; in series [4], 5 nM. In addition, the Papp A→B at 2 h, 2 µM in series [3] amounted to 3.2 ×10⁻⁶ cm/s.
Turning to `Cc1cc(-c2ccc3nc(Nc4cc([C@@H](C)N5CCN(C(=O)CC(F)(F)F)CC5)ccn4)[nH]c3c2)ncn1`, the results for the IC50 in series [1] and in series [4] were 4 nM and 2 nM, respectively.
Regarding `CC(C)Oc1cncnc1-c1ccc2nc(Nc3cc([C@@H](C)N4CCN(C(=O)CC(F)(F)F)CC4)ccn3)[nH]c2c1`, the IC50 in series [4] was found to be 2 nM.
For the molecule `Cc1noc(-c2ccc3nc(Nc4cc(CN5CCN(C(=O)CC(F)(F)F)CC5)ccn4)[nH]c3c2)n1`, the IC50 worked out at 168 nM in series [1] and 129 nM in series [4]. In addition, the dissociation constant (Kd) in series [2] stood at 9 nM. The apparent permeability from apical to basolateral (Papp A→B) at 2 h, 2 µM in series [3] is 4.2 ×10⁻⁶ cm/s.
As to `Cc1noc(-c2ccc3nc(Nc4cc([C@@H](C)N5CCN(C(=O)CC(F)(F)F)CC5)ccn4)[nH]c3c2)n1`, the half-inhibitory concentration (IC50) in series [1] is 37 nM; in series [4], 19 nM. Also, the Kd in series [2] stood at 10 nM. Moreover, the apical-to-basolateral permeability (Papp A→B) at 2 h, 2 µM in series [3] was found to be 10.8 ×10⁻⁶ cm/s.
`COCc1cc(-c2ccc3nc(Nc4cc([C@@H](C)N5CCN(C(=O)CC(F)(F)F)CC5)ccn4)[nH]c3c2)ncn1`: the IC50 in series [1] came to 2 nM; in series [2], 30 nM. In series [3], the Papp A→B at 2 h, 2 µM is 1.4 ×10⁻⁶ cm/s.
`CNc1cc(-c2ccc3nc(Nc4cc(CN5CCN(C(=O)CC(F)(F)F)CC5)ccn4)[nH]c3c2)ncn1`: the half-maximal inhibitory concentration (IC50) in series [1] was found to be 10 nM; in series [2], 25 nM; in series [4] it was 10 nM.
For the molecule `C[C@H](c1ccnc(Nc2nc3ccc(-c4cc(N(C)C)ncn4)cc3[nH]2)c1)N1CCN(C(=O)CC(F)(F)F)CC1` [BAY-985], the IC50 in series [1] was found to be 2 nM; in series [2], 311 nM; in series [4], 2 nM. Further, the Papp A→B at 2 h, 2 µM in series [3] was in the range of 0.89 to 0.9 ×10⁻⁶ cm/s.
